What was measured:
TH (TH-WT, hTH1) [1] = biological target: T1, TH (TH-WT, hTH1) (Homo sapiens, UniProt P07101); assay: TH activity, L-Dopa quantified by HPLC with fluorescence detection; format: biochemical
T1 construct: full-length wild-type (C-terminal residue 497), expressed in E. coli as HisMBP fusion from pETMBP1a/hTH1, tags cut with TEV protease

TH:DNAJC12 complex [2] = biological target: T2, TH:DNAJC12 complex (Homo sapiens, UniProt P07101); assay: cryo-EM 3D reconstruction ([…] Å map); format: binding; settings: Fe(III)-catecholate complex; map EMD-18289, no PDB model deposited; regulatory helix 39-58 density at active sites
T2 construct: both full-length wild-type, each expressed in E. coli as HisMBP fusion, tags cut with TEV protease; with DnaJ homolog subfamily C member 12
T2 sequence (P07101 1-497 isoform P07101-3): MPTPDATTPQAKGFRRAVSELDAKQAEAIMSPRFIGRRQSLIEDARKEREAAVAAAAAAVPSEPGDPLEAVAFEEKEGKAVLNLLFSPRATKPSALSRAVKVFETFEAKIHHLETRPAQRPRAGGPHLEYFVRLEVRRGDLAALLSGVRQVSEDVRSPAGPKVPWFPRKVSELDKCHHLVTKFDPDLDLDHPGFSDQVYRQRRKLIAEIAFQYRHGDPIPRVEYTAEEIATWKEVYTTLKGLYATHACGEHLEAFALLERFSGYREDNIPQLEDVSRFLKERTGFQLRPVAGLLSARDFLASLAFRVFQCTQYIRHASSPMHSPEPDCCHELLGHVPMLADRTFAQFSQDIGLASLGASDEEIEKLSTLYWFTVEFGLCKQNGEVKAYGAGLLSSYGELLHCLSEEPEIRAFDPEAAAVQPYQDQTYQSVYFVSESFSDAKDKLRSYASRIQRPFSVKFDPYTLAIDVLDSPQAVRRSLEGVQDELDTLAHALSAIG
T2 sequence (Q9UKB3 whole entry partner, the tested form may be a part): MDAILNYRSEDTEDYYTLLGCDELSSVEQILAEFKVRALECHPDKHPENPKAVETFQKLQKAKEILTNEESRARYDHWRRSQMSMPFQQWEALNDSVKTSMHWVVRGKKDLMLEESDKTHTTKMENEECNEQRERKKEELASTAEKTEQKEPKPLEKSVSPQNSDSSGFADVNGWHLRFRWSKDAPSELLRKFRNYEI

TH:DNAJC12 complex [3] = biological target: T2, TH:DNAJC12 complex; assay: differential scanning fluorimetry (SYPRO Orange); format: binding; settings: 0.23 µM TH:DNAJC12 complex, 9 µM DA, ferrous ammonium sulfate; stabilization
TH:DNAJC12 complex [4] = biological target: T2, TH:DNAJC12 complex; assay: TH activity, L-Dopa quantified by HPLC with fluorescence detection; format: biochemical
TH (TH-WT, hTH1) [5] = biological target: T1, TH (TH-WT, hTH1); assay: differential scanning fluorimetry (SYPRO Orange); format: binding; settings: 0.23 µM TH tetramer, 9 µM DA, ferrous ammonium sulfate; stabilization

T1 sequence (P07101 1-497 isoform P07101-3): as the sequence (P07101 1-497 isoform P07101-3) above

**Q.** `NCCc1ccc(O)c(O)c1` [dopamine] was tested. Which IC50 (TH (TH-WT, hTH1) [1]) did it give?
**A.** The IC50 was 0.363 ± 0.082 µM.

**Q.** What about the “cryo-EM 3D reconstruction (5.0 Å map)” value (TH:DNAJC12 complex [2]) of the same molecule?
**A.** The value was 3D reconstruction of TH:DNAJC12 in the presence of the feedback inhibitor DA (TH(DA):DNAJC12).

**Q.** And the Tm (TH:DNAJC12 complex [3])?
**A.** The Tm was “we also observed a Tm increase for the TH:DNAJC12 complex in the presence of DA”.

**Q.** What about the IC50 (TH:DNAJC12 complex [4]) of the same molecule?
**A.** The IC50 was 0.356 ± 0.103 µM.

**Q.** What about the Tm (TH (TH-WT, hTH1) [5]) of the same molecule?
**A.** The Tm was “adding equimolar amounts of DA (per TH subunit) increased the Tm of TH”.
